The target in this assay is T1, chimeric human H3 receptor (Homo sapiens, UniProt Q9Y5N1, E19D).
T1 construct: made in house; host or cells: Sf9 insect cells (baculovirus infection); P2 membrane preparation
As to the kind of experiment: Chimeric human H3 receptor GTP binding assay (agonist-stimulated GTP-gamma35S binding, Example 7). In kind it is biochemical. Put shortly: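 IC50 values come from non-linear regression of dose-response curves of filter-bound GTP-gamma^35S, counted by scintillation. Membranes were from infected Sf9 cells carrying receptor plus G-protein subunits, 35 μg/tube, with 10 μM GDP present.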
In general terms: GTPγS resists hydrolysis and so accumulates on activated G proteins.

Setting [1] is: Table II, "*" in Ki, assay of Example 7, read-out: Ki.
Where [2] appears, read: assay of Example 7, "*" in Ki of Table II, read-out: Ki.
Setting [3] is: Table II "Ki", symbol "*": Ki in the assay of Example 7, read-out: Ki.
The mark [4] stands for this setting: Table II, assay of Example 7, "*" in Ki, read-out: Ki.
The mark [5] stands for this setting: assay of Example 7, symbol * in column headed Ki of Table II, read-out: Ki.
Setting [6] is: "*" in Ki of Table II, assay of Example 7, read-out: Ki.

pKi: −log10 of the molar value. Like-named read-outs stand apart in the source and are kept apart here.

T1 sequence (Q9Y5N1 with tags, fused parts or gaps E19D): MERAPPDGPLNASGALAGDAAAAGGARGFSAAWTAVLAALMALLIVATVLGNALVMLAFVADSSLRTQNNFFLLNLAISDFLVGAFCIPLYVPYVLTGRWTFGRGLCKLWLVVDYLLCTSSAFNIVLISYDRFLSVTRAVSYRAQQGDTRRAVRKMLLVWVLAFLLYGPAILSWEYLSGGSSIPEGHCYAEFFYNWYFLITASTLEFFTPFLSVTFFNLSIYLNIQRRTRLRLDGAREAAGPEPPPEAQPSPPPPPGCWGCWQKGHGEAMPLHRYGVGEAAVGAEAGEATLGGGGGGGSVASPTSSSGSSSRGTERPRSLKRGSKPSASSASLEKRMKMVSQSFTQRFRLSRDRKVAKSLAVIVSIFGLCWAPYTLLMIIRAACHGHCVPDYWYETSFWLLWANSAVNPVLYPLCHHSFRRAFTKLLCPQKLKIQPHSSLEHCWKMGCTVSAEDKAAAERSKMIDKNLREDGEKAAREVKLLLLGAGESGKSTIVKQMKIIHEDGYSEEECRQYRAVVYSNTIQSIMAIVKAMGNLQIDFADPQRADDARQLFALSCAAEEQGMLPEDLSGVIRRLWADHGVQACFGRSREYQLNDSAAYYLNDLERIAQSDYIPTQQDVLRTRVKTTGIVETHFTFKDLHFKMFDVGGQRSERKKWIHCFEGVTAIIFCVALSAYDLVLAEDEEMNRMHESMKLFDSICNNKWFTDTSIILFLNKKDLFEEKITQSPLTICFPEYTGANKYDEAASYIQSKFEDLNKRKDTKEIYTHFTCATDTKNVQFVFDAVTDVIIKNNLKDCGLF

As to `CC1CCCCN1C(=O)c1cccc(N2CCN(CC(=O)N3CCN(C4CCC4)CC3)CC2)c1` (centres unmarked) [Compound 639, 1-cyclobutyl-4-[(4-{3-[(2-methylpiperidin-1-yl)carbonyl]phenyl}piperazin-1-yl)acetyl]piperazine], the negative logarithm of the Ki (pKi) (in general, the Ki on a negative log10 scale, so that one unit is a factor of ten) under setting [1] is greater than 6.00.

Turning to `CCCC(C)NC(=O)c1ccc(N2CCN(CC(=O)N3CCN(C4CCC4)CC3)CC2)nc1` (centres unmarked) [Compound 1184, 6-{4-[2-(4-cyclobutylpiperazin-1-yl)-2-oxoethyl]piperazin-1-yl}-N-(1-methylbutyl)nicotinamide], the pKi under setting [2] is greater than 6.00.

For the molecule `O=C(CN1CCN(c2cnc(-c3cccc(Cl)c3)cn2)CC1)N1CCN(C2CCC2)CC1` [Compound 900, 2-(3-chlorophenyl)-5-{4-[2-(4-cyclobutylpiperazin-1-yl)-2-oxoethyl]piperazin-1-yl}pyrazine], the negative logarithm of the Ki (pKi) under setting [3] is greater than 6.00.

`O=C(NC1CCN(CC(=O)N2CCN(C3CCC3)CC2)CC1)c1ccc(Oc2ccccc2)cc1` [Compound 1224, N-{1-[2-(4-cyclobutylpiperazin-1-yl)-2-oxoethyl]piperidin-4-yl}-4-phenoxybenzamide]: the pKi under setting [2] is greater than 6.00.

As for `Cc1cccc(-c2cnc(N3CCN(CC(=O)N4CCN(C5CCC5)CC4)CC3)cn2)c1` [Compound 924, 2-{4-[2-(4-cyclobutylpiperazin-1-yl)-2-oxoethyl]piperazin-1-yl}-5-(3-methylphenyl)pyrazine], the pKi under setting [3] is greater than 6.00.

Turning to `COc1cc(F)c(-c2ccc(N3CCN(CC(=O)N4CCN(C5CCC5)CC4)CC3)nn2)cc1F` [Compound 1028, 3-{4-[2-(4-cyclobutylpiperazin-1-yl)-2-oxoethyl]piperazin-1-yl}-6-(2,5-difluoro-4-methoxyphenyl) pyridazine], under setting [4], the negative logarithm of the Ki (pKi) was greater than 6.00.

As to `O=C(CN1CCC2(CC1)C(=O)N(c1ccccn1)c1ccccc12)N1CCN(C2CCC2)CC1` [Compound 424, 1′-[2-(4-cyclobutylpiperazin-1-yl)-2-oxoethyl]-1-pyridin-2-ylspiro[indole-3,4′-piperidin]-2(1H)-one], the pKi under setting [5] was greater than 6.00.

For the molecule `O=C(CN1CCN(c2ccc(-c3ccc(C(F)(F)F)cc3)nn2)CC1)N1CCN(C2CCC2)CC1` [Compound 1062, 3-{4-[2-(4-cyclobutylpiperazin-1-yl)-2-oxoethyl]piperazin-1-yl}-6-[4-(trifluoromethyl)phenyl] pyridazine], the pKi under setting [4] is greater than 6.00.

With `O=C(NC1CCN(CC(=O)N2CCN(C3CCC3)CC2)C1)c1ccc(-c2ccccc2)cc1` (centres unmarked) [Compound 1254, N-{1-[2-(4-cyclobutylpiperazin-1-yl)-2-oxoethyl]pyrrolidin-3-yl}biphenyl-4-carboxamide], the pKi under setting [2] was greater than 6.00.

Take `COc1ccc2cc(-c3cnc(N4CCN(CC(=O)N5CCN(C6CCC6)CC5)CC4)cn3)ccc2c1` [Compound 941, 2-{4-[2-(4-cyclobutylpiperazin-1-yl)-2-oxoethyl]piperazin-1-yl}-5-(6-methoxy-2-naphthyl)pyrazine]: the pKi under setting [4] was greater than 6.00.

`CCC(C)N1CCN(C(=O)CN2CCN(c3ccccc3F)CC2)CC1` (centres unmarked) [Compound 867, 1-sec-butyl-4-{[4-(2-fluorophenyl)piperazin-1-yl]acetyl}piperazine]: the pKi was greater than 6.00.

For the molecule `CC(C)c1ccc(C(=O)NC2CCN(CC(=O)N3CCN(C4CCC4)CC3)CC2)cc1` [Compound 1219, N-{1-[2-(4-cyclobutylpiperazin-1-yl)-2-oxoethyl]piperidin-4-yl}-4-isopropylbenzamide], the negative logarithm of the Ki (pKi) under setting [2] was greater than 6.00.

For `CC(C)N1CCN(C(=O)CN2CCN(c3cccc(Cl)c3Cl)CC2)CC1` [Compound 262, 1-(2,3-dichlorophenyl)-4-[2-(4-isopropylpiperazin-1-yl)-2-oxoethyl]piperazine], the pKi is greater than 6.00.

Regarding `O=C(CN1CCN(c2ccc(-c3ccc(F)cc3)nn2)CC1)N1CCN(C2CCC2)CC1` [Compound 1003, 3-{4-[2-(4-cyclobutylpiperazin-1-yl)-2-oxoethyl]piperazin-1-yl}-6-(4-fluorophenyl)pyridazine], the pKi under setting [4] is greater than 6.00.

As for `Cc1cccc(OC(C)C(=O)N2CCN(CC(=O)N3CCN(C4CCC4)CC3)CC2)c1C` (centres unmarked) [Compound 571, 1-cyclobutyl-4-({4-[2-(2,3-dimethylphenoxy)propanoyl]piperazin-1-yl}acetyl)piperazine], under setting [6], the pKi was greater than 6.00.

`COc1ccc(Br)cc1CC(=O)N1CCN(CC(=O)N2CCN(C3CCC3)CC2)CC1` [Compound 409, 1-[(5-bromo-2-methoxyphenyl)acetyl]-4-[2-(4-cyclobutylpiperazin-1-yl)-2-oxoethyl]piperazine]: the pKi under setting [5] was greater than 6.00.

In the case of `O=C(CN1CCN(c2ccccc2)CC1)N1CCN(C2CCCCC2)CC1` [Compound 805, 1-cyclohexyl-4-[(4-phenylpiperazin-1-yl)acetyl]piperazine], under setting [3], the pKi is greater than 6.00.

As to `COc1ccc(N2CCN(CC(=O)N3CCN(C(C)C)CC3)CC2)cc1OC` [Compound 285, 1-(3,4-dimethoxyphenyl)-4-[2-(4-isopropylpiperazin-1-yl)-2-oxoethyl]piperazine], under setting [5], the pKi was greater than 6.00.

`O=C(CN1CCN(c2ccc(-c3ccc(OC(F)(F)F)cc3)nn2)CC1)N1CCN(C2CCC2)CC1` [Compound 1021, 3-{4-[2-(4-cyclobutylpiperazin-1-yl)-2-oxoethyl]piperazin-1-yl}-6-[4-(trifluoromethoxy)phenyl] pyridazine]: under setting [4], the negative logarithm of the Ki (pKi) is greater than 6.00.

`Cc1ccc(-c2ccc(N3CCN(CC(=O)N4CCN(C5CCC5)CC4)CC3)cc2)cc1C` [Compound 735, 1-cyclobutyl-4-{[4-(3′,4′-dimethylbiphenyl-4-yl)piperazin-1-yl]acetyl}piperazine]: the pKi under setting [1] is greater than 6.00.

Regarding `CC(=O)N1CCN(CC(=O)N2CCN(C3CCCCC3)CC2)CC1` [Compound 484, 1-acetyl-4-[2-(4-cyclohexylpiperazin-1-yl)-2-oxoethyl]piperazine], the pKi under setting [6] is greater than 6.00.

`CCCC(C)NC(=O)c1cccc(N2CCN(CC(=O)N3CCN(C4CCC4)CC3)CC2)c1` (centres unmarked) [Compound 1082, 3-{4-[2-(4-cyclobutylpiperazin-1-yl)-2-oxoethyl]piperazin-1-yl}-N-(1-methylbutyl)benzamide]: the pKi under setting [4] was greater than 6.00.

Regarding `O=C(CN1CCN(c2ccc(C(=O)N3CCC(F)CC3)cc2)CC1)N1CCN(C2CCC2)CC1` [Compound 648, 1-cyclobutyl-4-[(4-{4-[(4-fluoropiperidin-1-yl)carbonyl]phenyl}piperazin-1-yl)acetyl]piperazine], under setting [1], the pKi is greater than 6.00.

`O=C(CN1CCC(F)(c2ccccc2)CC1)N1CCN(C2CCC2)CC1` [Compound 654, 1-cyclobutyl-4-[(4-fluoro-4-phenylpiperidin-1-yl)acetyl]piperazine]: under setting [1], the pKi was greater than 6.00.

For `CCCCCNC(=O)c1ccc(N2CCN(CC(=O)N3CCN(C4CCC4)CC3)CC2)cc1` [Compound 1135, 4-{4-[2-(4-cyclobutylpiperazin-1-yl)-2-oxoethyl]piperazin-1-yl}-N-pentylbenzamide], under setting [4], the pKi was greater than 6.00.

On to `CN(C)C(=O)c1ccc(N2CCN(CC(=O)N3CCN(C4CCC4)CC3)CC2)cc1` [Compound 1123, 4-{1-[2-(4-cyclobutylpiperazin-1-yl)-2-oxoethyl]piperazin-1-yl}-N,N-dimethylbenzamide], for which, under setting [4], the negative logarithm of the Ki (pKi) was greater than 6.00.

With `O=C(NC1CCCC1)c1ccc(N2CCN(CC(=O)N3CCN(C4CCC4)CC3)CC2)nc1` [Compound 1183, 6-{4-[2-(4-cyclobutylpiperazin-1-yl)-2-oxoethyl]piperazin-1-yl}-N-cyclopentylnicotinamide], the pKi under setting [2] was greater than 6.00.

For the molecule `C=CCNC(=O)c1cccc(N2CCN(CC(=O)N3CCN(C4CCC4)CC3)CC2)c1` [Compound 1260, N-allyl-3-{4-[2-(4-cyclobutylpiperazin-1-yl)-2-oxoethyl]piperazin-1-yl}benzamide], the pKi under setting [2] is greater than 6.00.

As to `Cc1cccc(N2CCN(CC(=O)N3CCN(C4CCCCC4)CC3)CC2)c1` [Compound 821, 1-cyclohexyl-4-{[4-(3-methylphenyl)piperazin-1-yl]acetyl}piperazine], the pKi under setting [3] is greater than 6.00.

`CCOc1ccc(-c2cnc(N3CCN(CC(=O)N4CCN(C5CCC5)CC4)CC3)cn2)cc1` [Compound 946, 2-{4-[2-(4-cyclobutylpiperazin-1-yl)-2-oxoethyl]piperazin-1-yl}-5-(4-ethoxyphenyi)pyrazine]: the pKi under setting [4] is greater than 6.00.

Take `O=C(CN1CCN(c2ccc(S(=O)(=O)Cc3ccccc3)cc2)CC1)N1CCN(C2CCC2)CC1` [Compound 460, 1-[4-(benzylsulfonyl)phenyl]-4-[2-(4-cyclobutylpiperazin-1-yl)-2-oxoethyl]piperazine]: under setting [6], the negative logarithm of the Ki (pKi) is greater than 6.00.

Take `O=C(CN1CCN(c2ccc(-c3ccccc3F)nn2)CC1)N1CCN(C2CCC2)CC1` [Compound 1005, 3-{4-[2-(4-cyclobutylpiperazin-1-yl)-2-oxoethyl]piperazin-1-yl}-6-(2-fluorophenyl)pyridazine]: under setting [4], the negative-log Ki (pKi) was greater than 6.00.

For the molecule `O=C(CN1CCN(c2cnc(-c3ccc(Cl)c(Cl)c3)cn2)CC1)N1CCN(C2CCC2)CC1` [Compound 964, 2-{4-[2-(4-cyclobutylpiperazin-1-yl)-2-oxoethyl]piperazin-1-yl}-5-(3,4-dichlorophenyl)pyrazine], the pKi under setting [4] was greater than 6.00.

As for `O=C(CN1C=CC2(CC1)c1ccccc1C(=O)N2Cc1ccccc1)N1CCN(C2CCC2)CC1` (centres unmarked) [Compound 980, 2-benzyl-1′-[2-(4-cyclobutylpiperazin-1-yl)-2-oxoethyl]-2′,′3-dihydro-1′H-spiro[isoindole-1,4′-pyridin]-3(2H)-one], the pKi under setting [4] was greater than 6.00.

`O=C(CN1CCN(c2cnc(-c3ccc(Cl)cc3)cn2)CC1)N1CCN(C2CCC2)CC1` [Compound 904, 2-(4-chlorophenyl)-5-{4-[2-(4-cyclobutylpiperazin-1-yl)-2-oxoethyl]piperazin-1-yl}pyrazine]: the pKi under setting [3] is greater than 6.00.

Values taken from patent publication US7851474B2, “Dipiperazinyl ketones and related analogues” (Neurogen Corporation, priority 2005, dated 2010).
